In US20230085307A1, “PYRIDAZINONE COMPOUND AND HERBICIDE” (NISSAN CHEMICAL CORPORATION, priority 2019, published 2023):

Experiments:
persian speedwell = experiment: Test Example 5: herbicidal effect by foliage application, plastic box (Table 20, symbol R); type: in vivo, Persian speedwell (Veronica persica); details: foliage application, three weeks after application
Outline: (§1)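 Post-emergence foliar test in sterilized diluvial soil. Compound applied as water-diluted emulsion at a predetermined rate to 14-day-old plants; evaluation at three weeks.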

false cleavers = experiment: Test Example 5: herbicidal effect by foliage application, plastic box (Table 20, symbol Q); type: in vivo, false cleavers (Galium spurium); details: foliage application, three weeks after application
Outline: as §1

velvetleaf = experiment: Test Example 5: herbicidal effect by foliage application, plastic box (Table 20, symbol M); type: in vivo, velvetleaf (Abutilon theophrasti); details: foliage application, three weeks after application
Outline: as §1

rice flat sedge = experiment: Test Example 3: herbicidal effect by foliage application, Wagner pot (Table 18, symbol E); type: in vivo, rice flat sedge (Cyperus iria)
Outline: (§2)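 Plants were sown in alluvial soil held under 0.1–0.5 cm standing water and grown 14 days in a greenhouse at 25–30 °C. An emulsifiable formulation, water-diluted to the set dose, was then sprayed onto the foliage, and effects were scored three weeks later using previously defined criteria.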

wild oat = experiment: Test Example 5: herbicidal effect by foliage application, plastic box (Table 20, symbol I); type: in vivo, wild oat (Avena fatua); details: foliage application, three weeks after application
Outline: as §1

Italian ryegrass = experiment: Test Example 5: herbicidal effect by foliage application, plastic box (Table 20, symbol K); type: in vivo, Italian ryegrass (Lolium multiflorum); details: foliage application, three weeks after application
Outline: as §1

chickweed = experiment: Test Example 5: herbicidal effect by foliage application, plastic box (Table 20, symbol P); type: in vivo, common chickweed (Stellaria media); details: foliage application, three weeks after application
Outline: as §1

Chinese sprangletop = experiment: Test Example 3: herbicidal effect by foliage application, Wagner pot (Table 18, symbol D); type: in vivo, chinese sprangletop (Leptochloa chinensis)
Outline: as §2

barnyard grass [1] = experiment: Test Example 3: herbicidal effect by foliage application, Wagner pot (Table 18, symbol H); type: in vivo, barnyard grass (Echinochloa crus-galli)
Outline: as §2

barnyard grass [2] = experiment: Test Example 5: herbicidal effect by foliage application, plastic box (Table 20, symbol H); type: in vivo, barnyard grass (Echinochloa crus-galli); details: foliage application, three weeks after application
Outline: as §1

redroot pigweed = experiment: Test Example 5: herbicidal effect by foliage application, plastic box (Table 20, symbol N); type: in vivo, redroot pigweed (Amaranthus retroflexus); details: foliage application, three weeks after application
Outline: as §1

green foxtail = experiment: Test Example 5: herbicidal effect by foliage application, plastic box (Table 20, symbol G); type: in vivo, green foxtail (Setaria viridis); details: foliage application, three weeks after application
Outline: as §1

lambsquarters = experiment: Test Example 5: herbicidal effect by foliage application, plastic box (Table 20, symbol O); type: in vivo, lambsquarters (Chenopodium album); details: foliage application, three weeks after application
Outline: as §1

windgrass = experiment: Test Example 5: herbicidal effect by foliage application, plastic box (Table 20, symbol L); type: in vivo, windgrass (Apera spica-venti); details: foliage application, three weeks after application
Outline: as §1

blackgrass = experiment: Test Example 5: herbicidal effect by foliage application, plastic box (Table 20, symbol J); type: in vivo, blackgrass (Alopecurus myosuroides); details: foliage application, three weeks after application
Outline: as §1

southern crabgrass = experiment: Test Example 5: herbicidal effect by foliage application, plastic box (Table 20, symbol F); type: in vivo, southern crabgrass (Digitaria ciliaris); details: foliage application, three weeks after application
Outline: as §1

Cc1nn(C)c(=O)c(-c2c(-c3ccccc3Oc3ccccc3)sc3ccccc23)c1O [1-033]
herbicidal effect grade, R: persian speedwell (persian speedwell; 320 g/ha): 3 (Herbicidal rate of 40% or more and less than 70%) | herbicidal effect grade, Q: false cleavers (false cleavers; 320 g/ha): 4 (Herbicidal rate of 70% or more and less than 90%) | herbicidal effect grade, M: velvetleaf (velvetleaf; 320 g/ha): 0 (Herbicidal rate of 5% or less (almost no effect)) | herbicidal effect on E (rice flat sedge), rating 0-5 (rice flat sedge; 320 g/ha): 1 (Herbicidal rate of 5% or more and less than 20%) | herbicidal effect grade, I: wild oat (wild oat; 320 g/ha): 0 (Herbicidal rate of 5% or less (almost no effect)) | herbicidal effect grade, K: Italian ryegrass (Italian ryegrass; 320 g/ha): 0 (Herbicidal rate of 5% or less (almost no effect)) | herbicidal effect grade, P: chickweed (chickweed; 320 g/ha): 1 (Herbicidal rate of 5% or more and less than 20%) | herbicidal effect on D (Chinese sprangletop), rating 0-5 (Chinese sprangletop; 320 g/ha): 0 (Herbicidal rate of 5% or less (almost no effect)) | herbicidal effect on H (barnyard grass), rating 0-5 (barnyard grass [1]; 320 g/ha): 1 (Herbicidal rate of 5% or more and less than 20%) | herbicidal effect grade, H: barnyard grass (barnyard grass [2]; 320 g/ha): 2 (Herbicidal rate of 20% or more and less than 40%) | herbicidal effect grade, N: redroot pigweed (redroot pigweed; 320 g/ha): 0 (Herbicidal rate of 5% or less (almost no effect)) | herbicidal effect grade, G: green foxtail (green foxtail; 320 g/ha): 0 (Herbicidal rate of 5% or less (almost no effect)) | herbicidal effect grade, O: lambsquarters (lambsquarters; 320 g/ha): 0 (Herbicidal rate of 5% or less (almost no effect)) | herbicidal effect grade, L: windgrass (windgrass; 320 g/ha): 0 (Herbicidal rate of 5% or less (almost no effect)) | herbicidal effect grade, J: blackgrass (blackgrass; 320 g/ha): 0 (Herbicidal rate of 5% or less (almost no effect)) | herbicidal effect grade, F: southern crabgrass (southern crabgrass; 320 g/ha): 3 (Herbicidal rate of 40% or more and less than 70%)

CCS(=O)(=O)c1ccccc1-c1sc2ccccc2c1-c1c(O)c(C)nn(C)c1=O [1-038]
herbicidal effect grade, R: persian speedwell (persian speedwell; 123 g/ha): 0 (Herbicidal rate of 5% or less (almost no effect)) | herbicidal effect grade, Q: false cleavers (false cleavers; 123 g/ha): 3 (Herbicidal rate of 40% or more and less than 70%) | herbicidal effect grade, M: velvetleaf (velvetleaf; 123 g/ha): 0 (Herbicidal rate of 5% or less (almost no effect)) | herbicidal effect on E (rice flat sedge), rating 0-5 (rice flat sedge; 123 g/ha): 3 (Herbicidal rate of 40% or more and less than 70%) | herbicidal effect grade, I: wild oat (wild oat; 123 g/ha): 0 (Herbicidal rate of 5% or less (almost no effect)) | herbicidal effect grade, K: Italian ryegrass (Italian ryegrass; 123 g/ha): 0 (Herbicidal rate of 5% or less (almost no effect)) | herbicidal effect grade, P: chickweed (chickweed; 123 g/ha): 5 (Herbicidal rate of 90% or more (almost completely withered)) | herbicidal effect on D (Chinese sprangletop), rating 0-5 (Chinese sprangletop; 123 g/ha): 4 (Herbicidal rate of 70% or more and less than 90%) | herbicidal effect on H (barnyard grass), rating 0-5 (barnyard grass [1]; 123 g/ha): 0 (Herbicidal rate of 5% or less (almost no effect)) | herbicidal effect grade, H: barnyard grass (barnyard grass [2]; 123 g/ha): 0 (Herbicidal rate of 5% or less (almost no effect)) | herbicidal effect grade, N: redroot pigweed (redroot pigweed; 123 g/ha): 0 (Herbicidal rate of 5% or less (almost no effect)) | herbicidal effect grade, G: green foxtail (green foxtail; 123 g/ha): 0 (Herbicidal rate of 5% or less (almost no effect)) | herbicidal effect grade, O: lambsquarters (lambsquarters; 123 g/ha): 0 (Herbicidal rate of 5% or less (almost no effect)) | herbicidal effect grade, L: windgrass (windgrass; 123 g/ha): 0 (Herbicidal rate of 5% or less (almost no effect)) | herbicidal effect grade, J: blackgrass (blackgrass; 123 g/ha): 0 (Herbicidal rate of 5% or less (almost no effect)) | herbicidal effect grade, F: southern crabgrass (southern crabgrass; 123 g/ha): 0 (Herbicidal rate of 5% or less (almost no effect))

Cc1nn(C)c(=O)c(-c2c(-c3ccc(N(C)C)cc3)sc3ccccc23)c1O [1-039]
herbicidal effect grade, R: persian speedwell (persian speedwell; 295 g/ha): 5 (Herbicidal rate of 90% or more (almost completely withered)) | herbicidal effect grade, Q: false cleavers (false cleavers; 295 g/ha): 0 (Herbicidal rate of 5% or less (almost no effect)) | herbicidal effect grade, M: velvetleaf (velvetleaf; 295 g/ha): 3 (Herbicidal rate of 40% or more and less than 70%) | herbicidal effect on E (rice flat sedge), rating 0-5 (rice flat sedge; 295 g/ha): 3 (Herbicidal rate of 40% or more and less than 70%) | herbicidal effect grade, I: wild oat (wild oat; 295 g/ha): 0 (Herbicidal rate of 5% or less (almost no effect)) | herbicidal effect grade, K: Italian ryegrass (Italian ryegrass; 295 g/ha): 2 (Herbicidal rate of 20% or more and less than 40%) | herbicidal effect grade, P: chickweed (chickweed; 295 g/ha): 5 (Herbicidal rate of 90% or more (almost completely withered)) | herbicidal effect on D (Chinese sprangletop), rating 0-5 (Chinese sprangletop; 295 g/ha): 1 (Herbicidal rate of 5% or more and less than 20%) | herbicidal effect on H (barnyard grass), rating 0-5 (barnyard grass [1]; 295 g/ha): 3 (Herbicidal rate of 40% or more and less than 70%) | herbicidal effect grade, H: barnyard grass (barnyard grass [2]; 295 g/ha): 0 (Herbicidal rate of 5% or less (almost no effect)) | herbicidal effect grade, N: redroot pigweed (redroot pigweed; 295 g/ha): 5 (Herbicidal rate of 90% or more (almost completely withered)) | herbicidal effect grade, G: green foxtail (green foxtail; 295 g/ha): 4 (Herbicidal rate of 70% or more and less than 90%) | herbicidal effect grade, O: lambsquarters (lambsquarters; 295 g/ha): 4 (Herbicidal rate of 70% or more and less than 90%) | herbicidal effect grade, L: windgrass (windgrass; 295 g/ha): 0 (Herbicidal rate of 5% or less (almost no effect)) | herbicidal effect grade, J: blackgrass (blackgrass; 295 g/ha): 1 (Herbicidal rate of 5% or more and less than 20%) | herbicidal effect grade, F: southern crabgrass (southern crabgrass; 295 g/ha): 3 (Herbicidal rate of 40% or more and less than 70%)

CCCC(=O)Oc1c(C)nn(C)c(=O)c1-c1c(-c2ccc(OC)cc2OC)sc2ccccc12 [1-071]
herbicidal effect grade, R: persian speedwell (persian speedwell; 320 g/ha): 1 (Herbicidal rate of 5% or more and less than 20%) | herbicidal effect grade, Q: false cleavers (false cleavers; 320 g/ha): 0 (Herbicidal rate of 5% or less (almost no effect)) | herbicidal effect grade, M: velvetleaf (velvetleaf; 320 g/ha): 3 (Herbicidal rate of 40% or more and less than 70%) | herbicidal effect on E (rice flat sedge), rating 0-5 (rice flat sedge; 320 g/ha): 0 (Herbicidal rate of 5% or less (almost no effect)) | herbicidal effect grade, I: wild oat (wild oat; 320 g/ha): 0 (Herbicidal rate of 5% or less (almost no effect)) | herbicidal effect grade, K: Italian ryegrass (Italian ryegrass; 320 g/ha): 0 (Herbicidal rate of 5% or less (almost no effect)) | herbicidal effect grade, P: chickweed (chickweed; 320 g/ha): 2 (Herbicidal rate of 20% or more and less than 40%) | herbicidal effect on D (Chinese sprangletop), rating 0-5 (Chinese sprangletop; 320 g/ha): 0 (Herbicidal rate of 5% or less (almost no effect)) | herbicidal effect on H (barnyard grass), rating 0-5 (barnyard grass [1]; 320 g/ha): 2 (Herbicidal rate of 20% or more and less than 40%) | herbicidal effect grade, H: barnyard grass (barnyard grass [2]; 320 g/ha): 0 (Herbicidal rate of 5% or less (almost no effect)) | herbicidal effect grade, N: redroot pigweed (redroot pigweed; 320 g/ha): 0 (Herbicidal rate of 5% or less (almost no effect)) | herbicidal effect grade, G: green foxtail (green foxtail; 320 g/ha): 0 (Herbicidal rate of 5% or less (almost no effect)) | herbicidal effect grade, O: lambsquarters (lambsquarters; 320 g/ha): 0 (Herbicidal rate of 5% or less (almost no effect)) | herbicidal effect grade, L: windgrass (windgrass; 320 g/ha): 0 (Herbicidal rate of 5% or less (almost no effect)) | herbicidal effect grade, J: blackgrass (blackgrass; 320 g/ha): 0 (Herbicidal rate of 5% or less (almost no effect)) | herbicidal effect grade, F: southern crabgrass (southern crabgrass; 320 g/ha): 0 (Herbicidal rate of 5% or less (almost no effect))

Cc1nn(C)c(=O)c(-c2c(-c3ccoc3)sc3ccccc23)c1O [1-081]
herbicidal effect grade, R: persian speedwell (persian speedwell; 320 g/ha): 4 (Herbicidal rate of 70% or more and less than 90%) | herbicidal effect grade, Q: false cleavers (false cleavers; 320 g/ha): 2 (Herbicidal rate of 20% or more and less than 40%) | herbicidal effect grade, M: velvetleaf (velvetleaf; 320 g/ha): 3 (Herbicidal rate of 40% or more and less than 70%) | herbicidal effect on E (rice flat sedge), rating 0-5 (rice flat sedge; 320 g/ha): 4 (Herbicidal rate of 70% or more and less than 90%) | herbicidal effect grade, I: wild oat (wild oat; 320 g/ha): 0 (Herbicidal rate of 5% or less (almost no effect)) | herbicidal effect grade, K: Italian ryegrass (Italian ryegrass; 320 g/ha): 3 (Herbicidal rate of 40% or more and less than 70%) | herbicidal effect grade, P: chickweed (chickweed; 320 g/ha): 3 (Herbicidal rate of 40% or more and less than 70%) | herbicidal effect on D (Chinese sprangletop), rating 0-5 (Chinese sprangletop; 320 g/ha): 0 (Herbicidal rate of 5% or less (almost no effect)) | herbicidal effect on H (barnyard grass), rating 0-5 (barnyard grass [1]; 320 g/ha): 3 (Herbicidal rate of 40% or more and less than 70%) | herbicidal effect grade, H: barnyard grass (barnyard grass [2]; 320 g/ha): 0 (Herbicidal rate of 5% or less (almost no effect)) | herbicidal effect grade, N: redroot pigweed (redroot pigweed; 320 g/ha): 2 (Herbicidal rate of 20% or more and less than 40%) | herbicidal effect grade, G: green foxtail (green foxtail; 320 g/ha): 0 (Herbicidal rate of 5% or less (almost no effect)) | herbicidal effect grade, O: lambsquarters (lambsquarters; 320 g/ha): 0 (Herbicidal rate of 5% or less (almost no effect)) | herbicidal effect grade, L: windgrass (windgrass; 320 g/ha): 0 (Herbicidal rate of 5% or less (almost no effect)) | herbicidal effect grade, J: blackgrass (blackgrass; 320 g/ha): 0 (Herbicidal rate of 5% or less (almost no effect)) | herbicidal effect grade, F: southern crabgrass (southern crabgrass; 320 g/ha): 0 (Herbicidal rate of 5% or less (almost no effect))
